Laboratory results taken from patent US12673972B2, “Lung-specific targeting-peptide (LTP), compositions, and uses thereof” (University of Pittsburgh—Of the Commonwealth System of …, priority 2019, dated 2026).
Entries after “also recorded” stand apart in the source; their conditions may differ. No end group written: not given here. Cy5.5 = Cy5.5 fluorescent label

Tests used:
H9C2 cells [1] = assay: FACS uptake of Cy5.5-labeled alanine-scan peptides in H9C2 cells; type: cell-based, rat; conditions: 10 μM peptide, 30 minutes at 37° C., FACS gated on live cells
Description: An alanine scan of the cardiac targeting peptide (CTP, APWHLSSQYSRT, SEQ ID NO: 3) was performed, in which each amino acid was replaced sequentially with alanine, resulting in 11 different “alanine mutant” versions of CTP. Solid phase peptide synthesis of the alanine mutants of CTP fluorescently labeled with Cyanine 5.5 (Cy5.5) was conducted using standard fluorenylmethoxycarbonyl protecting group organic synthesis (FMOC) conditions on a Liberty CEM Microwave Peptide Synthesizer. Cleavage of the fully-protected CTP peptide fragment from the 2-chlorotrityl solid support was accomplished using 1% Trifluoroacetic acid (TFA)/methylene chloride (DCM), followed by elution of the peptide using TFA+scavengers, followed by isolation of the crude product by precipitation in Diethyl Ether (EtO2). Fluorescent dye labelling of the N-terminal amine was performed in solution using Cy5.5-NHS (Lumiprobe, Inc). The resulting crude cyclic CTP-Cy5.5 peptide was purified by preparative C-5 Reversed Phase High Performance Liquid Chromatography (RP-HPLC) on a Waters Delta Prep 4000 chromatography system, using standard Acetonitrile/0.1% TFA gradient conditions. Analytical C-5 RP-HPLC characterization on a Waters Alliance chromatography system followed by Matrix-Assisted Laser Desorption/Ionization Time-Of-Flight Mass Spectrometry (MALDI-TOF-MS) analysis on an Applied Biosystems Voyager workstation was used to confirm the expected mass and purity of the final product. For the purposes of nomenclature, the CTP mutants are identified by the original amino acid followed by its numbered position and A to indicate alanine at the substituted position, e.g., R11A indicates arginine at position 11 of CTP substituted with alanine (APWHLSSQYSAT, SEQ ID NO: 2). CTP was also synthesized as a 6-amino acid N-terminal peptide (CTP-A, APWHLS, SEQ ID NO: 4), and as a 6-amino acid C-terminal peptide (CTP-B, SQYSRT, SEQ ID NO: 5).
For in vitro testing, a rat cardiomyoblast cell line, H9C2 was incubated with each of the alanine-scan peptides, including parental peptide CTP and variants CTP-A and CTP-B; each condition was run in triplicate. For the incubation, peptides were received as lyophilized powders and made into 10 mM stock solutions in DMSO. The stock solution was diluted in culture medium to a final concentration of 10 μM for each peptide, and incubated for 30 minutes at 37° C. with H9C2 cells. Following the incubation period, cells were washed extensively with PBS, trypsinized and fluorescence activated cell sorting (FACS) was performed in biological triplicates. […] There was almost a 3-4 fold increase in median fluorescence intensities compared with CTP for S7A peptide and R11A peptide (FIG. 1).

CD1 mice = assay: In vivo biodistribution of fluorescently labeled peptides in mice (IVIS ex vivo organ imaging, confocal microscopy); conditions: for cardiac uptake / uptake in lung epithelial tissue: 10 mg/kg intravenously, 15 minutes circulation, CD1 mice; for uptake in lung epithelial tissue: confocal and IVIS; for greater lung than liver uptake (lung-to-liver ratio of fluorescent intensity) / lung transduction at lower doses: S7A 5 mg/kg, R11A 5 and 1 mg/kg, 15 minutes, ex vivo IVIS; for lung transduction at lower doses: even at the lowest injected dose
Description: CTP-B, CTP-P2A, CTP-S7A, CTP-R11A and a random negative control peptide (RAN), were further tested in vivo in mice, in triplicate. Wild-type, 6-week old, male and female CD1 mice were weighed and anesthetized. Mice were injected intravenously with the various peptides, each at a dose of 10 mg/kg. Peptides circulated for 15 minutes, after which mice were euthanized and fixed with 3 ml of 10% formalin injected through the left ventricular apex. Multiple organs (heart, lungs, liver, kidney, spleen, brain, large intestines, small intestines, testes/ovaries, and eyeball) were harvested, placed in a 12-well plate, and immediately imaged using a Perkin-Elmer IVIS imaging system using the relevant excitation-emission laser/detector wavelengths. After the imaging was complete, organs were placed in 10% formalin at room temperature. Following overnight fixation in formalin, organs were transferred to 30% sucrose at 4° C. Following overnight incubation in sucrose, all organs were embedded and frozen in optical cutting medium, 10 μm thick sections were cut, mounted with DAPI, and cover-slipped. Slides were imaged using confocal fluorescent microscopy using the same parameters for imaging between mice, peptides and organs, to allow for comparison and quantification of fluorescence intensities in the relevant regions of interest.
Injections were repeated in a total of 9 CD1 mice with identical lung uptake; all images were acquired with the same confocal microscope parameters to allow for cross-animal comparison; however, at the same laser intensity, the lung sample was saturated. […] Wild-type mice were injected with Cy5.5 labeled R11A at a dose of 10 mg/kg, and euthanized mice after 15 minutes; multiple organs were then harvested for imaging.
Wild-type CD1 mice were then injected with lower doses of fluorescently labeled S7A peptide (5 mg/kg) or R11A peptide (5 and 1 mg/kg). The peptides were allowed to circulate for 15 minutes, mice were sacrificed, multiple organs were harvested, and ex vivo IVIS imaging was performed. Ex vivo imaging of organs harvested from mice without injected peptides was performed in order to subtract background auto-fluorescent signal from the test organs. IVIS imaging of multiple organs was conducted after administering decreasing doses of peptide from 5 to 1 mg/kg. […] Quantification of IVIS imaging for total fluorescent intensity for heart, lung, liver, kidney, spleen, and brain is shown in FIG. 4. Using the fluorescent intensity values, Lung-to-Liver ratios for both peptides were calculated at the tested doses.

[2] = tested on: human bronchial epithelial cells from patients with Cystic Fibrosis (CF); assay: Confocal uptake in human bronchial epithelial cells from patients with Cystic Fibrosis; type: cell-based; conditions: for uptake by confocal microscopy: 10 μM, 0, 2, 10 or 30 minutes at 37° C./5% CO2, FIG. 6A; for quantification of fluorescence intensity (uptake): FIG. 6B
Description: Cells were grown on coverslips, incubated with 10 μM of S7A peptide, R11A peptide, or a random, negative control peptide, for 0, 2, 10, or 30 minutes at 37° C./5% CO2. Following incubation, cells were washed with prewarmed PBS, cross-stained with DAPI, fixed, and mounted on slides for confocal microscopy. […] In the time 0 and 2 minute timepoints, only the DAPI nuclear stain is visible, with cytoplasmic staining for the LTPs growing visible at 10 minutes and dominating the field of view at 30 minutes.

[3] = tested on: human bronchial epithelial cells from patients with CF; assay: Uptake at 4° C with fluorescently labeled transferrin (Tf-488) in human bronchial epithelial cells from patients with CF; type: cell-based; conditions: for uptake relative to random peptide: 10 μM, 1 hour on ice at 4° C. then 37° C., times 0, 5 and 30 minutes; for energy dependence of internalization: occurred even at 4° C.
Description: To further characterize uptake of S7A peptide and R11A peptide in cells of interest, human bronchial epithelial cells from patients with CF were grown on cover-slips. Cells were starved at 37° C. for 1 hour in minimal media (MEM media+0.5% Bovine Serum Albumin (BS)+25 mM Hepes buffer at pH 7.4), washed with cold PBS, incubated on ice at 4° C. with fluorescently labeled transferrin (Tf-488) and 10 μM of test peptide (Random, S7A peptide, or R11A peptide) for 1 hour before being shifted to a 37° C. water-bath. Cover-slips were fixed at times 0, 5 and 30 minutes, with random peptide samples fixed only at 0 and 30 minutes.

H9C2 cells [4] = assay: Confocal microscopy of H9C2 cells transduced with linear or cyclic CTP; type: cell-based, rat; conditions: for Mean (fluorescence) / Subtraction (mean minus background fluorescence): transduced H9C2 cells, confocal quantification
Excerpt: The cardiac targeting peptide (CTP, SEQ ID NO: 3) was cyclized by establishing a chemical bond between the amino and carboxyl termini (between the alpha-amino group of N-terminal Lysine and the C-terminus of the peptide sequence), and subsequently labelled with a Cy5.5 fluorescent label at the epsilon amino group of the N-terminal lysine.
The cyclic form of CTP was then compared to the linear form of CTP using confocal microscopy of transduced H9C2 cells, using the protocol as described in Example 1 above. […] Quantification of the fluorescence intensity, as shown in FIG. 10B and Table 2, confirmed the enhanced fluorescent activity.

How did the “uptake of the fluorescently labeled peptide into H9C2 cells as compared to full-length, parental CTP” value (“uptake … compared to full-length, parental CTP” for short) (H9C2 cells [1]) turn out when AAWHLSSQYSRT [CTP-P2A] was run?
Its value is “statistically significantly higher uptake”.

And the cardiac uptake (CD1 mice)?
The cardiac uptake was “results similar to what was predicted from in vitro H9C2 transduction”.

What does the source list for “APWHLSSQYSAT (also: Cy5.5 label, place not given here) [R11A, Lung-specific targeting peptide, alanine mutant of CTP; tested Cy5.5-labeled]”?
uptake of the fluorescently labeled peptide into H9C2 cells as compared to full-length, parental CTP (H9C2 cells [1]): statistically significantly higher uptake; cardiac uptake (CD1 mice): did not show significant cardiac uptake; also recorded: without significant cardiac uptake; uptake in lung epithelial tissue (CD1 mice): Robust lung uptake; greater lung than liver uptake (lung-to-liver ratio of fluorescent intensity) (CD1 mice): 8-9 fold; lung transduction at lower doses (CD1 mice): Robust lung transduction; uptake by confocal microscopy [2]: robust uptake; quantification of fluorescence intensity (uptake) ([2]; 10 μM): significantly high uptake; uptake relative to random peptide [3]: robust uptake; energy dependence of internalization [3]: not energy-dependent

For “SQYSRT [CTP-B, 6-amino acid C-terminal peptide of CTP]”, which “uptake … compared to full-length, parental CTP” value (H9C2 cells [1]) is on record?
The value was “statistically significantly higher uptake”.

What about the cardiac uptake (CD1 mice) of the same substance?
Its cardiac uptake is “results similar to what was predicted from in vitro H9C2 transduction”.

“KAPWHLSSQYSRT (cyclo(K(Cy5.5)APWHLSSQYSRT)) [Cyclic CTP, CTP cyclized via N-terminal lysine alpha-amino group to C-terminus, Cy5.5 at lysine epsilon amino group]” was tested. Which “uptake of cyclic format relative to linear format” value (H9C2 cells [4]; confocal imaging, FIG. 10A) did it give?
Its value is “enhanced uptake relative to the linear format”.

And the “Mean (fluorescence)” value (H9C2 cells [4])?
Its value is 521.590.

And the “Subtraction (mean minus background fluorescence)” value (H9C2 cells [4])?
Its value is 371.123.

Which “uptake … compared to full-length, parental CTP” value (H9C2 cells [1]) does the source give for “APWHLSAQYSRT (also: Cy5.5 label, place not given here) [S7A, Lung-specific targeting peptide, alanine mutant of CTP; tested Cy5.5-labeled]” here?
The value was “statistically significantly higher uptake”.

And the cardiac uptake (CD1 mice)?
Its cardiac uptake is “did not show significant cardiac uptake; also recorded: without significant cardiac uptake”.

What about the “uptake in lung epithelial tissue” value (CD1 mice) of the same substance?
Its value is “robust uptake”.

And the “greater lung than liver uptake (lung-to-liver ratio of fluorescent intensity)” value (CD1 mice)?
The value was “approximately 2.5 fold”.

What about the “lung transduction at lower doses” value (CD1 mice) of the same substance?
Its value is “Robust lung transduction”.

And the “uptake by confocal microscopy” value [2]?
Its value is “robust uptake”.

What about the “quantification of fluorescence intensity (uptake)” value ([2]; 10 μM) of the same substance?
The value was “significantly high uptake”.

What about the “uptake and fluorescence intensity compared between test peptides” value ([2]; 10 μM, confocal microscopy, FIG. 6A) of the same substance?
Its value is “higher uptake and fluorescence intensity even than R11A peptide”.

And the “uptake relative to random peptide” value [3]?
The value was “robust uptake”.

What about the “energy dependence of internalization” value [3] of the same substance?
The value was “not energy-dependent”.

“APWHLSSQYSRT [Linear CTP, cardiac targeting peptide described in WO2019226785A1, parental peptide, reference compound]” was tested. Which “Mean (fluorescence)” value (H9C2 cells [4]) did it give?
Its value is 362.478.

What about the “Subtraction (mean minus background fluorescence)” value (H9C2 cells [4]) of the same substance?
The value was 134.777.
